{"source": "patent US20140378395A1", "about": "“Peptides for the Treatment of Hearing” (13Therapeutics, Inc., priority 2011, published 2014)", "key": {"BALB/c mice [1]": {"system": "BALB/c mice", "experiment": "Effects of peptide on middle ear without added bacteria", "type": "in vivo, mouse", "conditions": "10 μM, no bacteria, 3 days; p=0.104, 0.880, 0.891", "protocol": "BALB/c (Bagg albino) mice, about 8-12 weeks of age, are anesthetized with a subcutaneous injection of xylazine & ketamine (about 0.1 mg/30 gm body weight) and their ears examined under the operating microscope to assure they are free of infection or perforation. One group of animals is injected with PBS (Phospho-buffered saline) in one ear and with about 10 μM of a peptide of Table 1 in the opposite ear, to determine the effect of peptide without added bacteria. A second group of animals receive about 5.0 μl of PBS plus heat-inactivated S. pneumoniae (about 10^9 CFU/ml) in one ear and about 5.0 μl of peptide (about 10 μM) plus heat-inactivated S. pneumoniae (about 10^9 CFU/ml) in the opposite ear. […] Inflammation is quantified by measuring 1) area of fluid present in the middle ear; 2) number of cells in middle ear fluid; and 3) thickness of the tympanic membrane (TM) taken at a point away from the injection site. Data are obtained from mice (n=18) injected with PBS alone for each of the histological parameters measured, to serve as a control group.\nFive mice were injected in one ear with PBS and in the opposite ear with 10 μM peptide P13 (SEQ ID NO: 369). Three days later the animals were killed, and the middle ears embedded, sectioned, stained and evaluated for fluid area, infiltrating cell number, and thickness of the tympanic membrane. […]"}, "BALB/c mice [2]": {"system": "BALB/c mice", "experiment": "Ototoxicity of topical administration in normal mice, ABR", "type": "in vivo, mouse", "conditions": "1, 10, 10 (twice) or 60 μg/30 μL topically; ABR 1-4 weeks", "protocol": "P13 (SEQ ID NO: 369) was investigated for possible negative impact on hearing in normal mice upon administration by ear drops. BALB/c mice, 16 weeks of age, (n=16) received two baseline auditory brainstem response (ABR) tests one week apart, and an otoscopic exam in both ears. ABR stimuli consisted of 20 tone-burst trains at 4 kHz, 8 kHz, 16 kHz and 32 kHz at five intensity levels in 10 dB steps, as previously described. An otoscopic exam was performed using an operating microscope to establish the clinical symptoms of AOM, as previously described. Any animal with an abnormal ABR or exam on pre-screen was not entered into the study.\nAll 16 animals remained in the study and were divided into five groups as follows:\ngroup 1: (n=6 ears) 1 μg P13 (SEQ ID NO: 369)/30 μl, topically, given once;\ngroup 2: (n=7 ears) 10 μg P13 (SEQ ID NO: 369)/30 μL, topically, given once;\ngroup 3: (n=7 ears) 10 μg P13 (SEQ ID NO: 369)/30 μL, topically, given twice, 24 hours apart;\ngroup 4: (n=6 ears) 60 μg P13 (SEQ ID NO: 369)/30 μL, topically, given once; and\nABRs were performed at one, two, three and four weeks post P13 (SEQ ID NO: 369) treatment. The two baseline ABRs were averaged and compared to the ABRs post P13 (SEQ ID NO: 369) treatment."}, "[3]": {"system": "TNF-α production in RAW264.7 cells", "type": "cell-based, murine", "conditions": "30 μg/mL, 15 minutes pre-incubation, 4 hours"}, "BALB/c mice [4]": {"system": "BALB/c mice", "experiment": "Assay for crossing the tympanic membrane by FITC-labeled peptide", "type": "in vivo, mouse", "conditions": "10 μg/30 μl dropped on ear, 10 minutes; AOM ears; fluorescent microscopy", "protocol": "Three BALB/c mice at 8-12 weeks of age were anesthetized with ketamine (100 mg/kg) and xylazine (20 mg/kg) prior to administration of bacteria. A ventral midline incision was made in the neck, and the bulla exposed after blunt dissection. The middle ear was inoculated through the bony wall with approximately 3.5 μL of a bacterial suspension (heat inactivated S. pneumoniae 10^10 CFU/ml) with a thin needle. Both the right and left ears received bacteria by bulla injection.\nAfter 24 hours, animals received an otoscopic exam using an operating microscope. Mice were anesthetized as described above, and the tympanic membrane was inspected for the presence or absence of the following three criteria for acute otitis media (AOM): 1) middle ear effusion behind the tympanic membrane; 2) change in color of the tympanic membrane from clear to red or white (indicating inflammation and/or purulence in the middle ear); and 3) change in position of the tympanic membrane from neutral to bulging or retracted.\nFour ears met the criteria for AOM. FITC labeled peptide P13-R^9 (SEQ ID NO: 378) (10 μg/30 μl) was dropped onto the middle ear. The peptide was allowed to absorb for 10 minutes. After 10 minutes, the external ear canal was flushed twice, and blotted to get rid of any remaining peptide. […]"}}, "note": "No end group written: not given here."}
{"substance": "DIVKLTVYDCI [Peptide P13, DIVKLTVYDCI]", "values": [{"measurement": "differences between PBS-injected ear and P13-injected ear in fluid area, cell number, tympanic membrane thickness", "setting": "BALB/c mice [1]", "result": "no differences"}, {"measurement": "impact on hearing thresholds in normal mice (ototoxicity)", "setting": "BALB/c mice [2]", "result": "did not negatively impact hearing thresholds"}]}
{"substance": "EEYFMYRGLLGLRIKYG [Peptide P7]", "values": [{"measurement": "NCE-stimulated TNF-α production compared to control peptide", "setting": "[3]", "result": "significantly inhibited"}]}
{"substance": "FITC-labeled P13-R^9: FITC (Fluorescein isothiocyanate) labeled peptide P13-R^9 (SEQ ID NO: 378) (DIVKLTVYDCIRRRRRRRRR; also: FITC label, position not given here)", "values": [{"measurement": "crossing of the tympanic membrane and association with cells in middle ear fluid", "setting": "BALB/c mice [4]", "result": "crosses the tympanic membrane"}]}
